According to ChEMBL document CHEMBL1131889, “Synthesis and acetylcholinesterase inhibitory activity of huperzine A-E2020 combined compound” (Bioorg Med Chem Lett, 1999):

Each compound was assayed against T1, Acetylcholinesterase (Rattus norvegicus, UniProt P37136) (assay: Inhibitory activity against Acetylcholinesterase (AChE) in rat brain hippocampal crude homogenate).
T1 sequence (P37136 whole entry): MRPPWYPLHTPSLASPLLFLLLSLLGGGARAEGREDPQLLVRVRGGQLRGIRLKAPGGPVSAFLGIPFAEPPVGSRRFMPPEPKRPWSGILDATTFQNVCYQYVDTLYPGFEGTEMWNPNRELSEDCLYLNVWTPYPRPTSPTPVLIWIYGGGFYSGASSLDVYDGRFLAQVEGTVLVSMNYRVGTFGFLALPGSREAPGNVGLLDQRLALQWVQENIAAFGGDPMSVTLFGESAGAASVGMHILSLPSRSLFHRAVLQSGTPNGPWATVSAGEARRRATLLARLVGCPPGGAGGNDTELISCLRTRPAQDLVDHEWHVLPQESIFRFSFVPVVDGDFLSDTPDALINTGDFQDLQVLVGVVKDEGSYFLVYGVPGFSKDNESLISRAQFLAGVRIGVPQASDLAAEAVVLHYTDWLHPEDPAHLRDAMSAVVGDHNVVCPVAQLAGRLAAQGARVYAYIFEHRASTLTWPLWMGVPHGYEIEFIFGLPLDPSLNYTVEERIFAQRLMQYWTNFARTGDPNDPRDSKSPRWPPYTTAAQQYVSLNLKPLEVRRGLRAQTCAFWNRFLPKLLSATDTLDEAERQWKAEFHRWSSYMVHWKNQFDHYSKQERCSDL
Assay type: tissue-based, Hippocampus
With `CC1(NCC2CCN(Cc3ccccc3)CC2)c2ccc(O)nc2CCC1O` (stereo not drawn) the IC50 was > 190 µM. Compound `COc1ccc2c(n1)CCC(OC)C2(C)NC(=O)C1CCN(Cc2ccccc2)CC1` (stereo not drawn) has an IC50 of 17.2 µM. In the case of `COc1ccc2c(n1)CCC(OC)C2(C)NCC1CCN(Cc2ccccc2)CC1` (stereo not drawn), the IC50 is reported as > 177 µM.
